The values that follow come from patent US20120121540A1 (priority 2007, published 2012).

A short description of the test: HCV replicon assay (luciferase reporter, ET cell line). In kind it is cell-based. The settings on record: Hepatitis C virus, HCV replicon luciferase activity in ET cells. An outline of the steps: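 EC50 and, via WST-1 cytotoxicity, TC50 were fitted with a Hill-coefficient equation to % inhibition across 10 two-fold dilutions. Compounds at 0.1 nM-[…] with 0.5% DMSO were applied 24 h post-seeding to replicon-bearing ET cells (luc-ubi-neo/NS3-5B, adaptive mutations). Firefly luciferase signal was measured after 48-72 h.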
In general terms: A replicon is a self-replicating genome or part of one, used to study replication in cells.

`O=S(=O)(NCc1cn2cc(-c3ccoc3)cc(C(F)(F)F)c2n1)c1ccccc1` [Compound 395]: the inhibition (in general, how much of the control response was suppressed) at 10 µM was 90.4%.
`O=S(=O)(Cc1ccccc1)NCc1cn2cc(-c3ccoc3)cc(C(F)(F)F)c2n1` [Compound 396] had an inhibition at 10 µM of 94.2%.
As to `O=C(NCc1ccc(F)cc1)NCc1cn2cc(-c3ccoc3)cc(C(F)(F)F)c2n1` [Compound 397, 1-(4-Fluoro-benzyl)-3-(6-furan-3-yl-8-trifluoromethyl-imidazo[1,2-a]pyridine-2-ylmethyl)-urea], 10 µM produced 21.9% inhibition.
To `O=C(NCc1cccc(F)c1)NCc1cn2cc(-c3ccoc3)cc(C(F)(F)F)c2n1` [Compound 398, 1-(3-Fluoro-benzyl)-3-(6-furan-3-yl-8-trifluoromethyl-imidazo[1,2-a]pyridine-2-ylmethyl)-urea] belongs 86.9%; to `O=C(NCc1cn2cc(-c3ccoc3)cc(C(F)(F)F)c2n1)NCc1ccccc1F` [Compound 399, 1-(2-Fluoro-benzyl)-3-(6-furan-3-yl-8-trifluoromethyl-imidazo[1,2-a]pyridine-2-ylmethyl)-urea], 37.7%.
Molecule `O=C(NCc1ccccc1F)c1nc2c(C(F)(F)F)cc(-c3ccoc3)cn2c1Cl` [Compound 402, 3-Chloro-6-furan-3-yl-8-trifluoromethyl-imidazo[1,2-a]pyridine-2-carboxylic Acid-2-fluoro-benzylamide] gave an inhibition at 10 µM of 94.9%.
In turn, `O=C(NCc1cccc(F)c1)c1nc2c(C(F)(F)F)cc(-c3ccoc3)cn2c1Cl` [Compound 403] returned an inhibition at 10 µM of 88.9%.
On to `O=C(NCc1ccc(F)cc1)c1nc2c(C(F)(F)F)cc(-c3ccoc3)cn2c1Cl` [Compound 404], for which the inhibition at 10 µM was determined as 83.9%.
`O=C(NCCc1ccccc1F)c1nc2c(C(F)(F)F)cc(-c3ccoc3)cn2c1Cl` [Compound 405, 3-Chloro-6-furan-3-yl-8-trifluoromethyl-imidazo[1,2-a]-pyridine-2-carboxylic acid [2-(2-fluoro-phenyl)-ethyl]-amide] yielded an inhibition at 10 µM of 90%.
The molecule `O=C(NCCc1cccc(F)c1)c1nc2c(C(F)(F)F)cc(-c3ccoc3)cn2c1Cl` [Compound 406, 3-Chloro-6-furan-3-yl-8-trifluoromethyl-imidazo[1,2-a]-pyridine-2-carboxylic acid [2-(3-fluoro-phenyl)-ethyl]-amide] returned an inhibition at 10 µM of 82.5%.
Molecule `O=C(NCCc1ccc(F)cc1)c1nc2c(C(F)(F)F)cc(-c3ccoc3)cn2c1Cl` [Compound 407, 3-Chloro-6-furan-3-yl-8-trifluoromethyl-imidazo[1,2-a]-pyridine-2-carboxylic acid [2-(4-fluoro-phenyl)-ethyl]-amide] registered an inhibition at 10 µM of 88%.
The molecule `O=C(CNC(=O)c1nc2c(C(F)(F)F)cc(-c3ccoc3)cn2c1Cl)c1cccc(F)c1` [Compound 409, 3-Chloro-6-furan-3-yl-8-trifluoromethyl-imidazo[1,2-a]pyridine-2-carboxylic Acid[2-(3-fluoro-phenyl)-2-oxo-ethyl]-amide] had an inhibition at 10 µM of 46.6%.
Molecule `O=C(NC(c1ccccc1)c1ccccn1)c1nc2c(C(F)(F)F)cc(-c3ccoc3)cn2c1Cl` (stereo not drawn) [Compound 410, 3-Chloro-6-furan-3-yl-8-trifluoromethyl-imidazo[1,2-a]pyridine-2-carboxylic Acid (phenyl-pyridin-2-yl-methyl)-amide] yielded an inhibition at 10 µM of 99.1%.
The figure for `C[C@@H](NC(=O)c1nc2c(C(F)(F)F)cc(-c3ccoc3)cn2c1Cl)c1ccccc1` [Compound 411, 3-Chloro-6-furan-3-yl-8-trifluoromethyl-imidazo[1,2-a]pyridine-2-carboxylic Acid (1-phenyl-ethyl)-amide] is 74.8%.
`C[C@H](NC(=O)c1nc2c(C(F)(F)F)cc(-c3ccoc3)cn2c1Cl)c1ccccc1` [Compound 412, 3-Chloro-6-furan-3-yl-8-trifluoromethyl-imidazo[1,2-a]pyridine-2-carboxylic Acid (1-phenyl-ethyl)-amide] came in with an inhibition at 10 µM of 85%.
The figure for `C[C@H](CNC(=O)c1nc2c(C(F)(F)F)cc(-c3ccoc3)cn2c1Cl)c1ccccc1` [Compound 414, 3-Chloro-6-furan-3-yl-8-trifluoromethyl-imidazo[1,2-a]pyridine-2-carboxylic Acid (2-phenyl-propyl)-amide] is 76.3%; for `O=C(NCc1nccs1)c1nc2c(C(F)(F)F)cc(-c3ccoc3)cn2c1Cl` [Compound 415, 3-Chloro-3-furan-3-yl-8-trifluomethyl-imidazo[1,2-a]-pyridine-2-carboxylic Acid (thiazol-2-ylmethyl)-amide] it is 92.6%; for `N#CC1CCN(C(=O)c2nc3c(C(F)(F)F)cc(-c4ccoc4)cn3c2Cl)C1` (stereo not drawn) [Compound 416, 1-(3-Chloro-6-furan-3-yl-8-trifluoromethyl-imidazo[1,2-a]pyridine-2-carbonyl)-pyrrolidine-3-carbonitrile] it is 58%.
Molecule `O=C(c1nc2c(C(F)(F)F)cc(-c3ccoc3)cn2c1Cl)N1CCC(c2ncon2)C1` (stereo not drawn) [Compound 417, (3-Chloro-6-furan-3-yl-8-trifluoromethyl-imidazo[1,2-a]pyridine-2-yl)-(3-[1,2,4]oxadiazol-3-yl-pyrrolidin-1-yl)-methanone] had an inhibition at 10 µM of 96.5%.
`O=C(c1nc2c(C(F)(F)F)cc(-c3ccoc3)cn2c1Cl)N1CCC(c2ccc(F)c(F)c2)C1` (stereo not drawn) [Compound 420, (3-Chloro-6-furan-3-yl-8-trifluoromethyl-imidazo[1,2-a]pyridine-2-yl)-[3-(3,4-difluoro-phenyl)-pyrrolidin-1-yl]-methanone] displayed an inhibition at 10 µM of 93.6%.
The figure for `O=C(c1nc2c(C(F)(F)F)cc(-c3ccoc3)cn2c1Cl)N1CC=C(c2cccs2)C1` [Compound 422, (3-Chloro-6-furan-3-yl-8-trifluoromethyl-imidazo[1,2-a]pyridin-2-yl)-(3-thiophen-2-yl-2,5-dihydro-pyrrol-1-yl)-methanone] is 99.8%; for `O=C(c1nc2c(C(F)(F)F)cc(-c3ccoc3)cn2c1Cl)N1CCC(c2cccs2)C1` (stereo not drawn) [Compound 423, (3-Chloro-6-furan-3-yl-8-trifluoromethyl-imidazo[1,2-a]pyridin-2-yl)-(3-thiophen-2-yl-pyrrolidin-1-yl)-methanone] it is 99.8%.
Consider `O=C(c1nc2c(C(F)(F)F)cc(-c3ccoc3)cn2c1Cl)N1CC=C(c2ccccc2F)C1` [Compound 424, (3-Chloro-6-furan-3-yl-8-trifluoromethyl-imidazo[1,2-a]pyridin-2-yl)-[3-(2-fluoro-phenyl)-2,5-dihydro-pyrrol-1-yl]-methanone], for which the inhibition at 10 µM came to 99.7%.
The figure for `O=C(c1nc2c(C(F)(F)F)cc(-c3ccoc3)cn2c1Cl)N1CC=C(c2ccsc2)C1` [Compound 425, (3-Chloro-6-furan-3-yl-8-trifluoromethyl-imidazo[1,2-a]pyridin-2-yl)-(3-thiophen-3-yl-2,5-dihydro-pyrrol-1-yl)-methanone] is 99.3%; for `O=C(c1nc2c(C(F)(F)F)cc(-c3ccoc3)cn2c1Cl)N1CC=C(c2cccc(F)c2)C1` [Compound 426, (3-Chloro-6-furan-3-yl-8-trifluoromethyl-imidazo[1,2-a]pyridin-2-yl)-[3-(3-fluoro-phenyl)-2,5-dihydro-pyrrol-1-yl]-methanone] it is 98.2%; for `O=C(c1nc2c(C(F)(F)F)cc(-c3ccoc3)cn2c1Cl)N1CC=C(c2ccc(F)cc2)C1` [Compound 427, (3-Chloro-6-furan-3-yl-8-trifluoromethyl-imidazo[1,2-a]pyridin-2-yl)-[3-(4-fluoro-phenyl)-2,5-dihydro-pyrrol-1-yl]-methanone] it is 99.1%.
On to `O=C(c1nc2c(C(F)(F)F)cc(-c3ccoc3)cn2c1Cl)N1CC=C(c2nccs2)C1` [Compound 428, (3-Chloro-6-furan-3-yl-8-trifluoromethyl-imidazo[1,2-a]pyridin-2-yl)-(3-thiazol-2-yl-2,5-dihydro-pyrrol-1-yl)-methanone], for which the inhibition at 10 µM turned out to be 99.9%.
For the molecule `O=C(c1nc2c(C(F)(F)F)cc(-c3ccoc3)cn2c1Cl)N1CC=C(c2ccoc2)C1` [Compound 429, (3-Chloro-6-furan-3-yl-8-trifluoromethyl-imidazo[1,2-a]pyridin-2-yl)-(3-furan-3-yl-2,5-dihydro-pyrrol-1-yl)-methanone], at 10 µM the inhibition was 98%.
In turn, `O=C(c1nc2c(C(F)(F)F)cc(-c3ccoc3)cn2c1Cl)N1CCC(c2nccs2)C1` (stereo not drawn) [Compound 430, (3-Chloro-6-furan-3-yl-8-trifluoromethyl-imidazo[1,2-a]pyridin-2-yl)-(3-thiazol-2-yl-pyrrolidin-1-yl)-methanone] came in with an inhibition at 10 µM of 99.4%.
To `O=C(c1nc2c(C(F)(F)F)cc(-c3ccoc3)cn2c1Cl)N1CCC(C2CCOC2)C1` (stereo not drawn) [Compound 431, (3-Chloro-6-furan-3-yl-8-trifluoromethyl-imidazo[1,2-a]pyridin-2-yl)-[3-(tetrahydro-furan-3-yl)-pyrrolidin-1-yl]-methanone] belongs 95.1%; to `O=C(c1nc2c(C(F)(F)F)cc(-c3cn[nH]c3)cn2c1Br)N1CCC(c2nccs2)C1` (stereo not drawn) [Compound 432, [3-Bromo-6-(1H-pyrazol-4-yl)-8-trifluoromethyl-imidazo[1,2-a]pyridin-2-yl]-(3-thiazol-2-yl-pyrrolidin-1-yl)-methanone], 96.5%.
The figure for `O=C(c1nc2c(C(F)(F)F)cc(-c3cn[nH]c3)cn2c1Br)N1CC=C(c2nccs2)C1` [Compound 433, [3-Bromo-6-(1H-pyrazol-4-yl)-8-trifluoromethyl-imidazo[1,2-a]pyridin-2-yl]-(3-thiazol-2-yl-2,5-dihydro-pyrrol-1-yl)-methanone] is 99.2%; for `O=C(c1nc2c(C(F)(F)F)cc(-c3cn[nH]c3)cn2c1Br)N1CC=C(c2ccsc2)C1` [Compound 435, [3-Bromo-6-(1H-pyrazol-4-yl)-8-trifluoromethyl-imidazo[1,2-a]pyridin-2-yl]-(3-thiophen-3-yl-2,5-dihydro-pyrrol-1-yl)-methanone] it is 98.8%.
